Here are results for 24 molecules from US7855288B2, “Pyrrolo [1,2-d] [1,2-4] triazine as inhibitors of c-Jun N terminal kinases (JNK) and p-38 kinases” (Novartis AG, priority 2004, dated 2010).

Experiment [1] deals with human recombinant Jnk2 (Homo sapiens, UniProt P45984). The experiment in a line: JNK enzymatic assay (33P incorporation into peptide). The experiment is classed as biochemical. The note with it: JNK2 kinase IC50 class, Table 1. The procedure:
In a final reaction volume of 20 μL, 5 nM human recombinant Jnk2 was incubated in the absence or presence of putative JNK inhibitors in increasing concentrations with 25 mM HEPES pH 7.5, 20 mM p-glycerophosphate, 10 mM MgCl2, 0.1 mM sodium orthovanadate, 0.005% Tween® 80, 10 uM [γ-^33P-ATP], 500 μM IPTTPITTTYFFFKKK peptide substrate and 2 mM DTT. The reaction was initiated by the addition of the [g-^33P-ATP]. After incubation for 20 minutes at 30° C., the aliquots were transferred onto P30/GF filtermats (PerkinElmer). Each filtermat washed four times in 100 ml 0.5% phosphoric acid, 0.5 mM pyrophosphate, then twice in 50 ml ethanol, dried and sealed into bag containing 5 ml of OptiPhase “SuperMix” liquid scintillation cocktail (PerkinElmer). Radioactivity incorporated into peptide was quantified on Trilux 1450 Microbeta plate-reader. IC50 values were calculated using SigmaPlot.

Experiment [2] deals with T1, p38α kinase (Homo sapiens, UniProt Q16539).
T1 construct: purchased Upstate
T1 sequence (Q16539 whole entry): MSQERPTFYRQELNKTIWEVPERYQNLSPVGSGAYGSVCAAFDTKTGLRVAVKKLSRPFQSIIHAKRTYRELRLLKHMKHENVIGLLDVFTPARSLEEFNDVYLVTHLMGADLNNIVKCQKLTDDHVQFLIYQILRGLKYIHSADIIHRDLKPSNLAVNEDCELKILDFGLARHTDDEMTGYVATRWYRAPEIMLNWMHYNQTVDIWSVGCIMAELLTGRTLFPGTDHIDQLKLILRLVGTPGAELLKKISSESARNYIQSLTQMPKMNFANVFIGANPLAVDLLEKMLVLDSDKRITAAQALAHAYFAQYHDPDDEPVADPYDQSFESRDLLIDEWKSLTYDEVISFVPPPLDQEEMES
The experiment in a line: p38α assay (ADP release coupled to NADH oxidation). The format is biochemical. To be noted: p38 kinase IC50 class, Table 1; read-out: p38α inhibition. The procedure:
The p38α assay employed is based on measurement of ADP released in the reaction of interest through NADH oxidation obtained by coupling with pyruvate kinase and lactate dehydrogenase reactions. The assays were performed in 384-well UV-plates. The final volume was 25 uL prepared from the addition of 2.5 uL compound dissolved in 10% DMSO, 17.5 uL of assay buffer and 5 uL of ATP. Assay buffer contains the following reagents to give final concentration in the assay: 25 mM HEPES, 20 mM 2-glycerophosphate, pH 7.6, 10 mM MgCl2, 0.1 mM sodium orthovanadate, 0.5 mM phosphoenolpyruvate, 0.12 mM NADH, 3.1 mg/ml LDH, 6.67 mg/ml pyruvate kinase, 0.25 mM peptide substrate, 2 mM DTT, 0.005% Tween 80 and 20 nM p38α kinase from Upstate. Test compounds are preincubated with p38α kinase for 60 min and the reaction started by addition of ATP to 0.15 mM final concentration. Reaction rates were measured at 340 nm using SpectraMax plate-reading spectrophotometer for 10 min at 37° C. Inhibition data were analyzed by non-linear least-squares regression using SigmaPlot.

A value given as a limit tells only on which side of the number the result lay.

Chain of human recombinant Jnk2 (P45984 whole entry): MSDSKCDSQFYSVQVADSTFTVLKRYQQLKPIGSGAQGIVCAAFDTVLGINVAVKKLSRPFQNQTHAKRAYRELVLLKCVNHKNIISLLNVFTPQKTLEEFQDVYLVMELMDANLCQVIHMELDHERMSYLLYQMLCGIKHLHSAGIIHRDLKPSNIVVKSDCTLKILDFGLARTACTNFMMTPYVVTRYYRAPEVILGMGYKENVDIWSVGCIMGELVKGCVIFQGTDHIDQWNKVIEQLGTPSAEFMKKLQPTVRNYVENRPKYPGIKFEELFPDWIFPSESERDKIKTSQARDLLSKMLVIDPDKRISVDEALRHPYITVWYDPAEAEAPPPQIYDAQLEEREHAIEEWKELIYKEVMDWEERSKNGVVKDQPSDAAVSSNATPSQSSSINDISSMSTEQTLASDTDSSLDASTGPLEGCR

With `CCOC(=O)c1cc2cnnc(Nc3cc(-c4ncco4)ccc3C)n2c1C` [Compound 13], the IC50 in experiment [1] fell in the range of 1 to 10 µM.

Regarding `CCOC(=O)c1cc2cnnc(Nc3ccc(Cl)cc3)n2c1C` [Compound 6], the IC50 in experiment [2] and in experiment [1] was 1 to 10 µM each time.

On to `CCOC(=O)c1cc2cnnc(Nc3cc(C(=O)NC4CC4)ccc3C)n2c1C` [Compound 3, 4-(5-Cyclopropylcarbamoyl-2-methyl-phenylamino)-6-methyl-pyrrolo[1,2-d][1,2,4]triazine-7-carboxylic acid ethyl ester], for which the IC50 in experiment [2] and in experiment [1] was less than 1 µM in each case.

As for `CCOC(=O)c1cc2cnnc(Nc3cc(C(=O)O)ccc3C)n2c1C` [Compound 18], the IC50 in experiment [2] and in experiment [1] was 1 to 10 µM each time.

`CCOC(=O)c1cc2cnnc(Nc3cc(N)ccc3C)n2c1C` [Compound 24]: the IC50 in experiment [2] and in experiment [1] was greater than 10 µM each time.

As to `CNC(=O)c1cc2cnnc(Nc3cc(C(=O)NC4CC4)ccc3C)n2c1C` [Compound 7], the IC50 in experiment [2] and in experiment [1] was less than 1 µM throughout.

Regarding `CCOC(=O)Nc1ccc(C)c(Nc2nncc3cc(C(=O)OCC)c(C)n23)c1` [Compound 5, 4-(5-Ethoxycarbonylamino-2-methyl-phenylamino)-6-methyl-pyrrolo[1,2-d][1,2,4]triazine-7-carboxylic acid ethyl ester], the IC50 in experiment [2] and in experiment [1] was less than 1 µM throughout.

With `Cc1ccc(C(=O)NC2CC2)cc1Nc1nncc2cc(C(=O)NC3CC3)c(C)n12` [Compound 8], the IC50 in experiment [2] is less than 1 µM; in experiment [1] it was 1 to 10 µM.

Take `CCOC(=O)c1cc2cnnc(Nc3cc(C(=O)Nc4ccccc4)ccc3C)n2c1C` [Compound 12]: the IC50 in experiment [2] and in experiment [1] was 1 to 10 µM each time.

Consider `CCOC(=O)c1cc2cnnc(Nc3cc(C(N)=O)ccc3C)n2c1C` [Compound 23], for which, in experiment [1], the IC50 was greater than 10 µM.

For `CCOC(=O)c1cc2cnnc(Nc3cc(C(=O)NC(C)C)ccc3C)n2c1C` [Compound 21], the IC50 in experiment [1] was greater than 10 µM.

For the molecule `CCOC(=O)c1cc2cnnc(Nc3cccc(C(=O)NC4CC4)c3)n2c1C` [Compound 11], the IC50 in experiment [2] and in experiment [1] was 1 to 10 µM throughout.

With `CCOC(=O)c1cc2cnnc(Nc3cccc(C(=O)O)c3)n2c1C` [Compound 17], the IC50 in experiment [1] lay within 1 to 10 µM.

For the molecule `CCOC(=O)c1cc2cnnc(Nc3ccccc3C)n2c1C` [Compound 16], the IC50 in experiment [2] and in experiment [1] was 1 to 10 µM each time.

Turning to `CCNC(=O)c1ccc(C)c(Nc2nncc3cc(C(=O)OCC)c(C)n23)c1` [Compound 9], the IC50 in experiment [2] and in experiment [1] was 1 to 10 µM throughout.

With `CCOC(=O)c1cc2cnnc(Nc3cc(C(=O)NC4CC4)ccc3OC)n2c1C` [Compound 1, 4-(5-Cyclopropylcarbamoyl-2-methoxy-phenylamino)-6-methyl-pyrrolo[1,2-d][1,2,4]triazine-7-carboxylic acid ethyl ester], the IC50 in experiment [2] and in experiment [1] was 1 to 10 µM throughout.

For the molecule `CCOC(=O)c1cc2cnnc(Nc3cc(-c4nnc[nH]4)ccc3C)n2c1C` [Compound 2, 4-[2-Methyl-5-(4H-[1,2,4]triazol-3-yl)-phenylamino]-6-methyl-pyrrolo[1,2-d][1,2,4]triazine-7-carboxylic acid ethyl ester], the IC50 in experiment [2] was 1 to 10 µM.

Take `CCOC(=O)c1cc2cnnc(Nc3cc(NC(C)=O)ccc3C)n2c1C` [Compound 19]: the IC50 in experiment [2] is greater than 10 µM; in experiment [1] it was 1 to 10 µM.

On to `CCOC(=O)c1cc2cnnc(Nc3ccc(C(=O)OC)cc3)n2c1C` [Compound 10], for which the IC50 in experiment [1] is 1 to 10 µM.

As for `Cc1ccc(C(=O)NC2CC2)cc1Nc1nncc2cc(C(=O)NCc3ccccc3)c(C)n12` [Compound 4, 4-(5-Cyclopropylcarbamoyl-2-methyl-phenylamino)-6-methyl-pyrrolo[1,2-d][1,2,4]triazine-7-carboxylic acid benzylamide], the IC50 in experiment [2] and in experiment [1] was less than 1 µM throughout.

As for `CCOC(=O)c1cc2cnnc(Nc3cc(NC(=O)OC(C)C)ccc3C)n2c1C` [Compound 14], the IC50 in experiment [2] and in experiment [1] was 1 to 10 µM in each case.

For the molecule `CCOC(=O)c1cc2cnnc(Nc3cc(C(=O)NCc4ccccc4)ccc3C)n2c1C` [Compound 20], the IC50 in experiment [2] and in experiment [1] was 1 to 10 µM each time.

As to `CCOC(=O)c1cc2cnnc(Nc3cc(C(=O)N4CCOCC4)ccc3C)n2c1C` [Compound 22], the IC50 in experiment [1] is greater than 10 µM.

For `CCOC(=O)c1cc2cnnc(Nc3ccccc3)n2c1C` [Compound 15], the IC50 in experiment [2] and in experiment [1] was 1 to 10 µM in each case.
